Reference: patent publication US8895547B2, “Substituted phenyl-oxathiazine derivatives, method for producing them, drugs containing said compounds and the use thereof” (Sanofi, priority 2011, dated 2014)

Molecular target: T1, human 11β-HSD1 (Homo sapiens, UniProt P28845)
T1 construct: host or cells: microsome fraction
Assay: Enzymatic 11beta-HSD1 test (SPA-based detection)
Type: biochemical
Conditions: human 11β-HSD1 microsome fraction, [1,2-3H]-cortisone, NADPH, 37° C. 1 hour
How it was run: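 Human 11β-HSD1 microsomes (0.2 µg protein) converted [1,2-3H]-cortisone ([…]) for 1 h at 37 °C. The reaction buffer was HEPES/KCl/NaCl/MgCl2 with 0.25 mM NADPH, with compounds added in DMSO. The reaction was stopped with SPA beads, anti-cortisol monoclonal antibody and 0.01 mM SSR110887; after 1 h at room temperature, [3H]-cortisol was scintillation-counted.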

T1 sequence (P28845 whole entry): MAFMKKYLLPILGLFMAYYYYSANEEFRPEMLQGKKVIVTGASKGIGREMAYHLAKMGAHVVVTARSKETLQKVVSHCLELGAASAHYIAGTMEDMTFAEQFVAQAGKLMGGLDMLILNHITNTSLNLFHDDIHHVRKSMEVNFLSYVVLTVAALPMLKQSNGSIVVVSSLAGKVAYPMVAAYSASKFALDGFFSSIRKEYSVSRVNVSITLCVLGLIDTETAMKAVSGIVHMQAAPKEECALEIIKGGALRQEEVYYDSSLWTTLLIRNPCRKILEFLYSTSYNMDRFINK

Compound	IC50
COc1cccc(-c2ccc(C3C(C)(C)OC(N[C@@H](CCO)c4ccccc4F)=NS3(=O)=O)cc2)c1 (stereo partly drawn) [Example 86]	10 nM
CC1(C)OC(N[C@@H](CCO)c2ccc(Cl)cc2)=NS(=O)(=O)C1c1ccc(-c2ccccc2)cc1 (stereo partly drawn) [Example 88, (S)-3-(5-Biphenyl-4-yl-6,6-dimethyl-4,4-dioxo-5,6-dihydro-4H-4lambda6-[1,4,3]oxathiazin-2-ylamino)-3-(4-chloro-phenyl)-propan-1-ol]	198 nM
CC1(C)OC(N[C@@H](CCO)c2cccc(Cl)c2)=NS(=O)(=O)C1c1ccc(-c2ccccc2)cc1 (stereo partly drawn) [Example 89, (S)-3-(5-Biphenyl-4-yl-6,6-dimethyl-4,4-dioxo-5,6-dihydro-4H-4lambda6-[1,4,3]oxathiazin-2-ylamino)-3-(3-chloro-phenyl)-propan-1-ol]	21 nM
CC1(C)OC(N[C@@H](CCO)c2ccccc2F)=NS(=O)(=O)C1c1ccc(-c2ccc(Cl)s2)cc1 (stereo partly drawn) [Example 91, (S)-3-{5-[4-(5-Chlorothiophen-2-yl)-phenyl]-6,6-dimethyl-4,4-dioxo-5,6-dihydro-4H-4lambda6-[1,4,3]oxathiazin-2-ylamino}-3-(2-fluorophenyl)-propan-1-ol]	11 nM
CC1(C)OC(N[C@@H](CCO)c2ccccc2F)=NS(=O)(=O)C1c1ccc(-c2cc(Cl)sc2Cl)cc1 (stereo partly drawn) [Example 92, (S)-3-{5-[4-(2,5-Dichlorothiophen-3-yl)-phenyl]-6,6-dimethyl-4,4-dioxo-5,6-dihydro-4H-4lambda6-[1,4,3]oxathiazin-2-ylamino}-3-(2-fluorophenyl)-propan-1-ol]	23 nM
COc1ccccc1-c1ccc(C2C(C)(C)OC(N[C@@H](CCO)c3ccccc3F)=NS2(=O)=O)cc1 (stereo partly drawn) [Example 94, (S)-3-(2-Fluorophenyl)-3-[5-(2′-methoxy-biphenyl-4-yl)-6,6-dimethyl-4,4-dioxo-5,6-dihydro-4H-4lambda6-[1,4,3]oxathiazin-2-ylamino]-propan-1-ol]	14 nM
CC1(C)OC(N[C@@H](CCO)c2cccc(F)c2Cl)=NS(=O)(=O)C1c1ccc(-c2ccccc2)cc1 (stereo partly drawn) [Example 96, (S)-3-(5-Biphenyl-4-yl-6,6-dimethyl-4,4-dioxo-5,6-dihydro-4H-4lambda6-[1,4,3]oxathiazin-2-ylamino)-3-(2-chloro-3-fluorophenyl)-propan-1-ol]	10 nM
CC1(C)OC(N[C@@H](CCO)c2ccc(F)cc2F)=NS(=O)(=O)C1c1ccc(-c2ccccc2)cc1 (stereo partly drawn) [Example 97, (S)-3-(5-Biphenyl-4-yl-6,6-dimethyl-4,4-dioxo-5,6-dihydro-4H-4lambda6-[1,4,3]oxathiazin-2-ylamino)-3-(2,4-difluorophenyl)-propan-1-ol]	16 nM
CC1(C)OC(N[C@@H](CCO)c2cc(F)ccc2F)=NS(=O)(=O)C1c1ccc(-c2ccccc2)cc1 (stereo partly drawn) [Example 98, (S)-3-(5-Biphenyl-4-yl-6,6-dimethyl-4,4-dioxo-5,6-dihydro-4H-4lambda6-[1,4,3]oxathiazin-2-ylamino)-3-(2,5-difluorophenyl)-propan-1-ol]	12 nM
CC1(C)OC(N[C@@H](CCO)c2cc(Cl)ccc2F)=NS(=O)(=O)C1c1ccc(-c2ccccc2)cc1 (stereo partly drawn) [Example 99, (S)-3-(5-Biphenyl-4-yl-6,6-dimethyl-4,4-dioxo-5,6-dihydro-4H-4lambda6-[1,4,3]oxathiazin-2-ylamino)-3-(5-chloro-2-fluorophenyl)-propan-1-ol]	25 nM
Cc1ccc(F)cc1[C@H](CCO)NC1=NS(=O)(=O)C(c2ccc(-c3ccccc3)cc2)C(C)(C)O1 (stereo partly drawn) [Example 100, (S)-3-(5-Biphenyl-4-yl-6,6-dimethyl-4,4-dioxo-5,6-dihydro-4H-4lambda6-[1,4,3]oxathiazin-2-ylamino)-3-(5-fluoro-2-methyl-phenyl)-propan-1-ol]	19 nM
CN1CCC(c2ccc(C3C(C)(C)OC(N[C@@H](CCO)c4ccccc4F)=NS3(=O)=O)cc2)CC1 (stereo partly drawn) [Example 103]	32 nM
CC1(C)OC(N[C@@H](CCO)c2ccccc2F)=NS(=O)(=O)C1c1ccc(C2CCN(CCO)CC2)cc1 (stereo partly drawn) [Example 104]	28 nM
CC1(C)OC(N[C@@H](CCO)c2ccccc2F)=NS(=O)(=O)C1c1ccc(CCCN)cc1 (stereo partly drawn) [Example 106, (5)-3-{5-[4-(3-Amino-propyl)-phenyl]-6,6-dimethyl-4,4-dioxo-5,6-dihydro-4H-4lambda6-[1,4,3]oxathiazin-2-ylamino}-3-(2-fluorophenyl)-propan-1-ol]	26 nM
CC1(C)OC(N[C@@H](CCO)c2ccccc2F)=NS(=O)(=O)C1c1ccc(N2CCOCC2)cc1 (stereo partly drawn) [Example 107, (S)-3-[6,6-Dimethyl-5-(4-morpholin-4-yl-phenyl)-4,4-dioxo-5,6-dihydro-4H-4lambda6-[1,4,3]oxathiazin-2-ylamino]-3-(2-fluorophenyl)-propan-1-ol]	33 nM
CN(C)CCCc1ccc(C2C(C)(C)OC(N[C@@H](CCO)c3ccccc3F)=NS2(=O)=O)cc1 (stereo partly drawn) [Example 108, (S)-3-{5-[4-(3-Dimethylamino-propyl)-phenyl]-6,6-dimethyl-4,4-dioxo-5,6-dihydro-4H-4lambda6-[1,4,3]oxathiazin-2-ylamino}-3-(2-fluorophenyl)-propan-1-ol]	42 nM
CN1CCN(c2ccc(C3C(C)(C)OC(N[C@@H](CCO)c4ccccc4F)=NS3(=O)=O)cc2)CC1 (stereo partly drawn) [Example 109]	79 nM
CC1(C)OC(N[C@@H](CCO)c2ccccc2F)=NS(=O)(=O)C1c1ccc(CCCN2CCOCC2)cc1 (stereo partly drawn) [Example 110]	27 nM
CNCCCc1ccc(C2C(C)(C)OC(N[C@@H](CCO)c3ccccc3F)=NS2(=O)=O)cc1 (stereo partly drawn) [Example 117, (S)-3-{6,6-Dimethyl-5-[4-(3-methylamino-propyl)-phenyl]-4,4-dioxo-5,6-dihydro-4H-4lambda6-[1,4,3]oxathiazin-2-ylamino}-3-(2-fluorophenyl)-propan-1-ol]	23 nM

Molecules with a lower IC50, results first:

IC50	Compound
7 nM	CC1(C)OC(N[C@@H](CCO)c2ccccc2F)=NS(=O)(=O)C1c1ccc(-c2ccccc2C#N)cc1 (stereo partly drawn) [Example 87]
7 nM	CC1(C)OC(N[C@@H](CCO)c2ccccc2F)=NS(=O)(=O)C1c1ccc(-c2cncnc2)cc1 (stereo partly drawn) [Example 90, (S)-3-[6,6-Dimethyl-4,4-dioxo-5-(4-pyrimidin-5-yl-phenyl)-5,6-dihydro-4H-4lambda6-[1,4,3]oxathiazin-2-ylamino]-3-(2-fluorophenyl)-propan-1-ol]
6 nM	CC1(C)OC(N[C@@H](CCO)c2ccccc2F)=NS(=O)(=O)C1c1ccc(-c2cccc(C#N)c2)cc1 (stereo partly drawn) [Example 93]
6 nM	CC1(C)OC(N[C@@H](CCO)c2ccccc2F)=NS(=O)(=O)C1c1ccc(-c2ccc(C#N)cc2)cc1 (stereo partly drawn) [Example 95]
5 nM	CC1(C)OC(N[C@@H](CCO)c2ccccc2F)=NS(=O)(=O)C1c1ccc(-c2cscn2)cc1 (stereo partly drawn) [Example 101, (S)-3-[6,6-Dimethyl-4,4-dioxo-5-(4-thiazol-4-yl-phenyl)-5,6-dihydro-4H-4lambda6-[1,4,3]oxathiazin-2-ylamino]-3-(2-fluorophenyl)-propan-1-ol]
6 nM	CC1(C)OC(N[C@@H](CCO)c2ccccc2F)=NS(=O)(=O)C1c1ccc(C(F)(F)F)cc1 (stereo partly drawn) [Example 102, (S)-3-[6,6-Dimethyl-4,4-dioxo-5-(4-trifluormethyl-phenyl)-5,6-dihydro-4H-4lambda6-[1,4,3]oxathiazin-2-ylamino]-3-(2-fluorophenyl)-propan-1-ol]
8 nM	CC1(C)OC(N[C@@H](CCO)c2ccccc2F)=NS(=O)(=O)C1c1ccc(C2CCN(CC(F)F)CC2)cc1 (stereo partly drawn) [Example 105]
7 nM	Cn1nccc1-c1ccc(C2C(C)(C)OC(N[C@@H](CCO)c3ccccc3F)=NS2(=O)=O)cc1 (stereo partly drawn) [Example 111, (S)-3-{6,6-Dimethyl-5-[4-(2-methyl-2H-pyrazol-yl)-phenyl]-4,4-dioxo-5,6-dihydro-4H-4lambda6-[1,4,3]oxathiazin-2-ylamino}-3-(2-fluorophenyl)-propan-1-ol]
7 nM	CN(C)C(=O)c1ccc(-c2ccc(C3C(C)(C)OC(N[C@@H](CCO)c4ccccc4F)=NS3(=O)=O)cc2)cc1 (stereo partly drawn) [Example 112, 4′-{2-[(S)-1-(2-fluorophenyl)-3-hydroxy-propylamino]-6,6-dimethyl-4,4-dioxo-5,6-dihydro-4H-4lambda6-[1,4,3]oxathiazin-5-yl}-biphenyl-4-carboxylic acid dimethylamide]
4 nM	CC1(C)OC(N[C@@H](CCO)c2ccccc2F)=NS(=O)(=O)C1c1ccc(-c2cccnc2)cc1 (stereo partly drawn) [Example 113, (S)-3-[6,6-Dimethyl-4,4-dioxo-5-(4-pyridin-3-yl-phenyl)-5,6-dihydro-4H-4lambda6-[1,4,3]oxathiazin-2-ylamino]-3-(2-fluorophenyl)-propan-1-ol]
8 nM	CN1CCN(c2ccc(-c3ccc(C4C(C)(C)OC(N[C@@H](CCO)c5ccccc5F)=NS4(=O)=O)cc3)cc2)CC1 (stereo partly drawn) [Example 114]
5 nM	Cc1n[nH]cc1-c1ccc(C2C(C)(C)OC(N[C@@H](CCO)c3ccccc3F)=NS2(=O)=O)cc1 (stereo partly drawn) [Example 115, (S)-3-{6,6-Dimethyl-5-[4-(3-methyl-1H-pyrazol-yl)-phenyl]-4,4-dioxo-5,6-dihydro-4H-4lambda6-[1,4,3]oxathiazin-2-ylamino}-3-(2-fluorophenyl)-propan-1-ol]
5 nM	CN(CCCc1ccc(C2C(C)(C)OC(N[C@@H](CCO)c3ccccc3F)=NS2(=O)=O)cc1)CC(F)F (stereo partly drawn) [Example 116, (S)-3-[5-(4-{3-[(2,2-Difluoroethyl)-methyl-amino]-propyl}-phenyl)-6,6-dimethyl-4,4-dioxo-5,6-dihydro-4H-4lambda6-[1,4,3]oxathiazin-2-ylamino]-3-(2-fluorophenyl)-propan-1-ol]
8 nM	CC1(C)OC(N[C@@H](CCO)c2ccccc2F)=NS(=O)(=O)C1c1ccc(-c2csc(N3CCOCC3)n2)cc1 (stereo partly drawn) [Example 118, (S)-3-{6,6-Dimethyl-5-[4-(2-morpholin-4-yl-thiazol-4-yl)-phenyl]-4,4-dioxo-5,6-dihydro-4H-4lambda6-[1,4,3]oxathiazin-2-ylamino}-3-(2-fluorophenyl)-propan-1-ol]
